Assay type in all cases: biochemical
Test [1] concerns the target T1, MurA (UDP-N-acetylglucosamine 1-carboxyvinyltransferase) (Enterobacter cloacae, UniProt P33038). Kind of test: crystal structure at […] Å.
Test [2] addresses MurA (UDP-N-acetylglucosamine 1-carboxyvinyltransferase) (Escherichia coli, UniProt P0A749). In words: malachite green assay of residual MurA activity.
For test [3], the target named is T1, MurA (UDP-N-acetylglucosamine 1-carboxyvinyltransferase). In words: crystal structure at […] Å. The source holds these as a separate data set.

Where two headings read alike, the source gives them in different places.

T1 sequence (P33038 whole entry): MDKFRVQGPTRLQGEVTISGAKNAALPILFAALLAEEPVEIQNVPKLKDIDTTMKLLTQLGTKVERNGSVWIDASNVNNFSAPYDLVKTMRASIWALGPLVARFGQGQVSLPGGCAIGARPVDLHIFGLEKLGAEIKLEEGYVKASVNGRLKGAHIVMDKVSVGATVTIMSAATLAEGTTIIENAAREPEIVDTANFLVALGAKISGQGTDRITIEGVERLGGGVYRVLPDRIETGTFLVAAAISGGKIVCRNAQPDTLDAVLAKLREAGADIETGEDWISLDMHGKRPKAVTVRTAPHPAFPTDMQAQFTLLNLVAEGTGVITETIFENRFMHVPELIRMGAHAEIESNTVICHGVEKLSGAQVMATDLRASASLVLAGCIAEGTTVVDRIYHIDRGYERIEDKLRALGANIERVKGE
Sequence of MurA (UDP-N-acetylglucosamine 1-carboxyvinyltransferase) (Escherichia coli, UniProt P0A749) (P0A749 whole entry): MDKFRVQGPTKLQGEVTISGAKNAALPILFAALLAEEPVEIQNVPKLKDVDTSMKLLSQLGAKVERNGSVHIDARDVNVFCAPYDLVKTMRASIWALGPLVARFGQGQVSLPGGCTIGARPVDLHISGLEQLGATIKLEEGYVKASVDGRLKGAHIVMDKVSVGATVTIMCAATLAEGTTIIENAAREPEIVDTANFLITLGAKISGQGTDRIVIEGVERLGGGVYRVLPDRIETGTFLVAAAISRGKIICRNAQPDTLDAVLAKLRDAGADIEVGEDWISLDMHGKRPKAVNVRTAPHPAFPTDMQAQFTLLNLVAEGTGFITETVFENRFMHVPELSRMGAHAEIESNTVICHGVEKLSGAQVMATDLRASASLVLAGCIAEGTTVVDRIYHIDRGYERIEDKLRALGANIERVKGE

In turn, `C[C@@H]1O[C@@H]1P(=O)(O)O` [fosfomycin, (1R,2S)-1,2-epoxypropyl phosphonic acid] gave a half-maximal inhibitory concentration (IC50) in test [1] of 0.25 ± 0.01 µM.
On to `CC1=C(O)C(=O)[C@@H]2O[C@@H]2C1=O` [terreic acid], for which the “malachite green assay of residual MurA activity” value in test [2] is “terreic acid is a covalent inhibitor of the bacterial cell wall biosynthetic enzyme MurA from E. cloacae and E. coli in-vitro”. Also, in test [3], the IC50 worked out at 14 ± 0.6 µM.

Source of the values: PMC2884014 (Biochemistry, 2010).
